Converted amounts (≈) assume the structure as drawn. Where two headings read alike, the source gives them in different places.
Assays:
S. mutans = conditions: naringenin at concentration 200 µg/mL; cited from earlier work
[1] = system: Streptococcus mutans No 22081; test: Growth of planktonic culture in liquid nutritive medium (CFU count after 5 h); assay type: cell-based; conditions: S. mutans planktonic culture; 1 mg/mL; 5 h incubation
Experimental: Example ? 3. Antibacterial activity of naringenin, guava leaf extract and lysozyme was assessed from the growth pattern of the reference strain Streptococcus mutans No 22081 (UNU Collection under I. I. Mechnikov Research Institute if Vaccines and sera) in liquid nutritive medium according to the procedure: • 1) Prepare the heart-brain broth (DM106D, Mast Group Ltd., U.K.) and Columbian agar supplemented with defibrinated blood (OOO "GEM" Cat. No BP-023) in accordance with the manufacturer's instruction. • 2) Using microbiological loop prepare the suspension (at concentration 1.5·10^8 CFU/mL) of 24 hour agar culture of S. mutans in the sterile buffered saline (BS) under visual control with McFarland standard 0.5. […] Prepare the composition of naringenin 0.33 mg/mL, lysozyme 0.33 mg/mL, and guava leaf extract 0.33 mg/mL. • 4) Put the plate with the samples into the incubator with 5% CO2 atmosphere, and incubate at 37°C for 5 h on shaking apparatus. • 5) After the 5 h incubation reinoculate the agar nutritive medium with the planktonic S. mutans culture to count CFU per 1 mL of medium. • 6) Perform optical density (OD) measurements using multimodal microplate reader at the wavelength 620 nm before the incubation (OD0) and then after the culture growth for 5 h ODt=5). […]

S. mutans biofilms = test: Biofilm formation on hydroxyapatite disks (CFU in resuspended biofilm); assay type: cell-based; conditions: for %N Control: percentage of S. mutans CFU on the disk in control experiment; for N S.mutans (CFU/mL): resuspended biofilm from hydroxyapatite disks, 64h incubation
Experimental: Example ? 6. Anti-biofilm activity of individual substances selected from naringenin, guava leaf extract, and lysozyme, or the composition thereof, is assessed from the rate of biofilm formation on hydroxyapatite disks, with the use of the following procedure: • 1) Prepare the heart-brain broth (DM106D, Mast Group Ltd., U.K.) and Columbian agar supplemented with defibrinated blood (OOO "GEM" Cat. No BP-023) in accordance with the manufacturer's instruction • 2) All stages of preparation of the bacterial culture suspensions were similar to those described in Example 1. • 3) Prepare saliva, which is required for biofilm formation and provides the bacteria adhesion to the surface of hydroxyapatite disks. […] Centrifuge the collected saliva at 12 000 rpm for 30 minutes at 4°C. Harvest the supernatant into the clean tube and subject to pasteurization at 65°C for 30 minutes followed by one more centrifugation.
The efficacy of saliva pasteurization is assessed from direct inoculation on Columbian blood agar. The plates are incubated under aerobic and anaerobic conditions at 37°C for 72 hours. The saliva is considered sterile if no growth of bacterial and fungal colonies is observed within 72 hours of observation.
Store the saliva at temperature -80 °C before the use. • 4) To form the salivary film on the surface of hydroxyapatite disk put three sterile disks (sterilization by autoclaving at 132 °C for 20 min) in each of 9 Petri dishes 40 mm in diameter abd incubate in 3 mL of the pasteurized saliva at room temperature for 4 hours with gentle shaking on orbital shaker. Then remove the saliva and add 3 mL of nutritive medium containing 1.2 mL of heart-brain broth; 1.2 mL of pasteurized saliva; 0.6 mL of S. mutans suspension at concentration of 10^6 CFU/mL into the Petri dish. The formation of S. mutans biofilm on the disk surface is achieved at 37°C under the atmosphere of 5 % CO2 in the environment, with gentle shaking on orbital shaker for 16 hours. • 5) After 16-hour incubation remove old nutritive medium from the dishes and add a fresh portion of heart-brain broth containing S. mutans suspension and the pasteurized saliva. Add the active substances selected from naringenin, guava leaf extract and lysozyme or combination thereof to final concentration 0.1 or 1.0 mg/mL. Repeat the procedure of medium replacement twice daily within […] and 8 h after the first change. • 6) To remove the biofilm formed in the disk surface take the disks away from Petri dishes after the incubation for 2 days and rinse in the large volume of PBS (pH 7.2). Then place the disks into sterile Petri dishes with 3 mL of PBS (pH 7.2) and shake vigorously on the orbital shaker for 30 minutes. […]

Streptococcus mutans = test: Minimum inhibitory concentration (MIC), serial two-fold dilution with resazurin test; assay type: cell-based; conditions: Streptococcus mutans, S. mutans
lysozyme = target: T1, lysozyme (Gallus gallus, UniProt P00698); test: Lysozyme and naringenin compatibility: lysozyme activity by fall of optical density of Micrococcus lysodeicticus cells; assay type: biochemical; conditions: added to the buffered medium with lysozyme; 30, 60, 120 minutes at 37 degrees
T1 construct: Lysozyme used in all tests was 99% anhydrous lysozyme hydrochloride isolated from the egg yolks; from tissue; host or cells: eggs ('egg yolks' as printed)
T1 sequence (P00698 19-147): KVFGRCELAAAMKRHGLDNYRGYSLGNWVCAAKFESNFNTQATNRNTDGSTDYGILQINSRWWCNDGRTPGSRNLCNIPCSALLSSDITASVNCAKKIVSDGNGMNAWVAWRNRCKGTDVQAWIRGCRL
Experimental: Example ? 8. Assessment of lysozyme and naringenin compatibility Potential impact of naringenin on lysozyme activity was assessed through the measurement of lysozyme activity by the method described in the patent RU2294373C2. To determine the lysozyme activity the optical density values obtained for the control wells are subtracted from the optical density values obtained for the wells, which were incubated in the presence of lysozyme. The bacterial cells Micrococcus lysodeicticus in amount corresponding to the optical density 0.6 are mixed with the equal volume of buffer containing lysozyme, naringenin, guava leaf CO2 extract, while no lysozyme is added into the control well. Then the plate is incubated for 30, 60, 120 minutes at 37 degrees, and the optical density is measured. The fall of optical density indicates the lysozyme activity. Then the final density value is subtracted from the initial density value followed by normalization for incubation time and the enzyme concentration in accordance with the procedure described in RU2294373C2.

MIC (Streptococcus mutans; 24 h at 37 °C, read-out: MIC value in individual replicate Replicate 1): > 1600 µg/mL
MIC (Streptococcus mutans; 24 h at 37 °C, read-out: MIC value in individual replicate Replicate 2): > 1600 µg/mL
MIC (Streptococcus mutans; 24 h at 37 °C, read-out: MIC value in individual replicate Replicate 3): 800 µg/mL (≈ 2940 µM)
MIC (Streptococcus mutans; 24 h at 37 °C, read-out: MIC value in individual replicate Replicate 4): 400 µg/mL (≈ 1470 µM)
MIC (Streptococcus mutans; 24 h at 37 °C, read-out: MIC value in individual replicate Replicate 5): 800 µg/mL (≈ 2940 µM)
MIC (Streptococcus mutans; median of 5 replicates, read-out: MIC Median value): 800 µg/mL (≈ 2940 µM)
SMILES: O=C1C[C@@H](c2ccc(O)cc2)Oc2cc(O)cc(O)c21 [Naringenin, naringenin]
biofilm formation (S. mutans): virtually completely inhibited
% of CFU obtained for control [1]: 4.8%
∑ CFU, mL [1]: 4.3x10^7 CFU, mL
%N Control (S. mutans biofilms; Csubstance 0.1 mg/mL): 66.7%
N S.mutans (CFU/mL) (S. mutans biofilms; Csubstance 0.1 mg/mL): 2.8·10^6 CFU/mL
%N Control (S. mutans biofilms; Csubstance 1.0 mg/mL): 50.0%
N S.mutans (CFU/mL) (S. mutans biofilms; Csubstance 1.0 mg/mL): 2.1·10^6 CFU/mL
effect on lysozyme activity (lysozyme): neither affect lysozyme nor decrease the lysozyme activity

Source: patent EP4458353A1, “ANTICARIOGENIC SYNERGETIC COMPOSITION FOR ORAL CARE” (SkyLab AG, priority 2023, dated 2024)
